Experimental data as given in the NIST ThermoML archive (doi:10.1021/je060190e).
Numbers after ± are expanded uncertainties.

Settings: 101.33 kPa, Liquid

CCCCn1cc[n+](C)c1.COS(=O)(=O)[O-] [1-butyl-3-methylimidazolium methyl sulfate]
mass density (290.95 K): 1214.9 ± 2.2 kg/m3
mass density (292.95 K): 1213.5 ± 2.2 kg/m3
mass density (294.95 K): 1212.1 ± 2.2 kg/m3
mass density (297 K): 1210.7 ± 2.2 kg/m3
mass density (299 K): 1209.4 ± 2.2 kg/m3
mass density (301 K): 1208 ± 2.2 kg/m3
mass density (303 K): 1206.7 ± 2.2 kg/m3
mass density (305 K): 1205.3 ± 2.2 kg/m3
mass density (307.05 K): 1204 ± 2.2 kg/m3
